US4125605A, “Method of employing oral TRH” (The United States Government, priority 1977, dated 1978)

Experiments:
postpartum women = experiment: Low-dose TRH in postpartum women: prolactin versus thyrotropin response; assay type: in vivo, human
surrogate mothers = experiment: Induction of lactation in surrogate (adoptive) mothers with conjugated estrogens plus oral TRH; assay type: in vivo, human
Source text: An additional use of TRH is in surrogate mothers. Studies in accordance with the present invention have involved the administration of TRH to adoptive mothers. In most instances, such women have undergone voluntary sterilization following the birth of natural children but, for one reason or another, wish to have another child. By the present invention, lactation has been induced in such women for the benefit of their adopted child by attempting to simulate the effects of pregnancy on prolactin secretion and, at the same time, by requesting that the […] practice auto-stimulation of the nipple. The technique of stimulation is as follows: Women are treated with 5 to 10 mg of conjugated estrogens equine twice a day for 14 days. Caution with regard to the possibility of side effects is given to each woman based upon the known effects of such estrogens on the vascular system. Beginning on the 7th day of estrogen treatment, oral TRH 5-10 mg twice a day, at intervals of about 12 hours, is administered for the final 7 days of treatment with estrogen. At the end of the 14th estrogen-treatment day, TRH is continued while the frequency of nipple stimulation is increased from four times daily to every 4 hours. In the women studied thus far, milk production can be induced within 72 hours following the withdrawal of the estrogen. […]

[1] = 20 mg dosage capsules three times a day, oral; cited from earlier work
[2] = test system: women practicing full nursing; assay type: in vivo, human
Experimental: (§1) Sixty women volunteered for this major study and each was instructed to practice full nursing for at least 90 postpartum days. Fifty percent of the women were dropped from the study before the end of the first postpartum month due to changes in nursing patterns. The remaining 30 women were randomly divided into TRH and control groups. TRH, 5 mg or a lactose placebo, was administered daily at 0800 and 2000 h for 30 days beginning on day 29 postpartum. Blood and milk samples were obtained on the first postpartum day and at weekly intervals between 1500 and 1600 h. Thus, blood samples were never obtained sooner than 7 h after the ingestion of TRH. Each women's nursing pattern was recorded by nurse-midwives. Charts of infant growth and development were plotted weekly.
(§2) With regard to sampling procedures, individual blood samples were collected in heparinized vacuum tubes. Neither nursing nor maternal food intake had occurred in the previous 3 h. The sampling procedure in Examples II and III consisted of placing the patient at rest for a minimum of 15 min after which blood was drawn from an antecubital vein. Blood samples were centrifuged and plasma was removed and stored at -20C. Samples originating outside the continental United States were delivered to the laboratory at quarterly intervals in dry ice by special messenger.
(§3) In Examples II and III, milk was obtained from each breast following blood sampling and immediately prior to nursing. The women were instructed to grasp first the right and then the left breast, kneading it gently toward the nipple. Thus, 10 ml or more of the fore milk was removed with ease through each nipple and combined in a sterile container. The sample was thoroughly mixed by vigorous shaking. A compressed tablet of mercuric chloride and potassium dichromate was then added as a preservative to each sample before storing.
(§4) A set of specific radioimmunoassays were employed for the measurement of plasma hormones. PRL was measured by a modification of the radioimmunoassay of Hwang et al., Proc. Nat. Acad. Sci., 68:1902 (1971) using the iodination technique of Greenwood et al., Biochem J., 89:114 (1963). Plasma LH and FSH were measured by using a modification of the double antibody radioimmunoassay of Midgely, Endocrinology, 79:10 (1966). Thyrotropin (TSH) was determined by a double antibody radioimmunoassay of Odell, Rayford and Ross, J. Lab. Clin. Med., 70:973 (1967). Plasma thyroxine (T4) by column was measured by the method of Pileggi and Kessler, Clin. Chem., 14:339 (1968). A modification of the immunoassay of Roth et al., Science, 140:987 (1963), was used to measure plasma growth hormone (GH) utilizing the iodination technique for prolactin. Antibody bound radioactivity was separated by the dextran-charcoal method of Herbert et al., J. Clin. Endocrinol. Metab., 25:1375 (1965). Each of the references mentioned in this paragraph is incorporated herein by reference.
For the analysis of milk composition, samples were thawed and held at room temperature for no more than 30 min. Aliquots were analyzed for percent fat, protein and lactose concentrations using the infrared milk analyzer (IRMA). Samples less than 30 ml in volume (about 10% of the total) were diluted up to 35 ml with distilled water. These were then homogenized with a Biosonic Model 3 Ultrasonicater (Bronwill Scientific Co., Rochester, N.Y.) at an exposed intensity of 70 vibrations per second for 30 sec. These samples were stored overnight at 4° C. and then analyzed for composition. […]

[3] = test system: nursing women between the 5th and 35 postpartum days; assay type: in vivo, human; settings: 5 mg TRH oral single dose
Experimental: To test the efficacy of TRH, six nursing women between the 5th and 35 postpartum days were studied. Each received one 5 mg capsule of TRH in the early morning after an overnight fast. Six nursing women matched for postpartum interval received a placebo of lactose sugar. Blood samples were drawn from an indwelling catheter in an antecubital vein at -5,0,30,60,120, and 180 min.
as §4, with “Each of the references mentioned in this paragraph is incorporated herein by reference.” left out

[4] = test system: women with insufficient lactation; design: species or system human; settings: in vivo
Experimental: as §4
As an experimental exercise, two women with insufficient lactation gave consent for the administration of 40 mg of oral TRH twice a day or the same time schedule as noted above. On the 7th day of therapy the patients were reevaluated and found to have lost weight. Their pulse rate was elevated as was their blood pressure. […]

[5] = test system: puerperally lactating mothers; experiment: Reestablishment of lactation in puerperally lactating mothers after emergency surgery; assay type: in vivo, human; settings: mothers separated from child by emergency surgery; with coincident sucking
Source text: The administration of TRH may also be initiated in puerperally lactating mothers who have to undergo emergency surgery such as polycystectomy, apendectomy, or the repair of fractures. Such surgery usually takes the mother away from the child for periods of time up to 14 days and a mother who is desirous of breastfeeding may find great difficulty in reestablishing lactation when she returns home from the hospital. In such cases, the administration of TRH has been associated with the reestablishment of lactation within 48 hours. It is to be emphasized that such lactation cannot be firmly established without coincident sucking of the nipple by the child.

[6] = test system: women with lactational insufficiency practicing partial nursing; experiment: Example III: oral TRH 5 mg or 20 mg twice a day for 5 days in women with lactational insufficiency; assay type: in vivo, human
Experimental: A group of 13 women with lactational insufficiency practicing partial nursing between 13-71 postpartum days were next studied. Four received TRH 5 mg and nine received 20 mg twice a day at 0800 and 2000 h for 5 days. Blood samples were obtained prior to the first capsule and daily thereafter for 5 days before taking the morning dose of TRH. Daily milk samples were also collected.
as §2, §3, §4
For the analysis of milk composition, samples were thawed and held at room temperature for no more than 30 min. Aliquots were analyzed for percent fat, protein and lactose concentrations using the infrared milk analyzer (IRMA). Samples less than 30 ml in volume (about 10% of the total) were diluted up to 35 ml with distilled water. These were then homogenized with a Biosonic Model 3 Ultrasonicater (Bronwill Scientific Co., Rochester, N.Y.) at an exposed intensity of 70 vibrations per second for 30 sec. These samples were stored overnight at 4° C. and then analyzed for composition. Corrections were made for any dilution.

[7] = test system: infants of TRH-treated mothers; design: species or system human; settings: in vivo, po
Experimental: as §1, with “Charts of infant growth and development were plotted weekly.” left out
A set of specific radioimmunoassays were employed for the measurement of plasma hormones. PRL was measured by a modification of the radioimmunoassay of Hwang et al., Proc. Nat. […] Plasma LH and FSH were measured by using a modification of the double antibody radioimmunoassay of Midgely, Endocrinology, 79:10 (1966). Thyrotropin (TSH) was determined by a double antibody radioimmunoassay of Odell, Rayford and Ross, J. Lab. […] Plasma thyroxine (T4) by column was measured by the method of Pileggi and Kessler, Clin. Chem., 14:339 (1968). […] Antibody bound radioactivity was separated by the dextran-charcoal method of Herbert et al., J. Clin. Endocrinol. […]

[8] = 5 mg TRH every 12 h for 5 days, four women
[9] = 20 mg twice daily, Day 1 (before initial ingestion)

For NC(=O)[C@@H]1CCCN1C(=O)[C@H](Cc1cnc[nH]1)NC(=O)[C@@H]1CCC(=O)N1 [TRH, thyrotropin releasing hormone], the “dose for maximum prolactin response, times lower than dose for threshold thyrotropin secretion” value (postpartum women) was 5 to 10 times, the “instances in which peripheral prolactin concentration is elevated” value (postpartum women; TRH in low doses) was 95% and the “time to induction of milk production following the withdrawal of the estrogen” value (surrogate mothers; conjugated estrogens equine 5 to 10 mg twice a day 14 days, oral TRH 5-10 mg twice a day from 7th day, nipple stimulation) was ≤ 72 h. The “basal plasma prolactin concentration” value (surrogate mothers; conjugated estrogens equine then oral TRH 5-10 mg twice a day, surrogate mothers) was “increase”, the “effect on the yield or composition of milk” value [1] was “no significant effect” and the “weekly 1500 h maternal PRL concentration” value ([2]; 5 mg TRH twice daily for 30 days, full nursing) was “not associated with any significant change”. For the same molecule, the “milk composition (percent of fat and protein concentration)” value ([2]; TRH versus control group, full nursing) was “did not differ significantly”, the “bleeding patterns (postovulatory vaginal bleeding)” value ([2]; beyond the 14th postpartum week, TRH-treated versus placebo-treated mothers) was “no difference” and the T4 values ([2]; in vivo) was “normal”. For the same molecule, the gonadotropin levels ([2]; measured weekly, TRH versus controls) was “identical in controls”, the “mean maximal PRL increment” value ([3]; at 60 min, six nursing mothers) was 46.3 ng/mL and the “peripheral PRL throughout the sampling period” value ([3]; sampling to 180 min) was “remained elevated”. The reevaluation after discontinuation [4] was “no clinical or laboratory evidence of hyperthyroidism”, the “time to reestablishment of lactation” value [5] was ≤ 48 h and the “increase in the PRL concentration” value [6, 8] was 50%. The “milk production and letdown” value [6, 8] was “increased”, the “% Milk fat, Mean ± SE” value [6, 9] was 2.99±0.4% and the “% Milk protein, Mean ± SE” value [6, 9] was 1.81±0.2%. The “Plasma PRL, Mean ± SE” value ([6]; 20 mg twice daily, Day 1 (before initial ingestion), nine women) was 27.8 ± 5.3 ng/mL, the “% Milk fat, Mean ± SE” value ([6]; 20 mg twice daily, Day 2, NS) was 3.88±0.6% and the “% Milk protein, Mean ± SE” value ([6]; 20 mg twice daily, Day 2, NS) was 1.63±0.2%. For the same molecule, the “Plasma PRL, Mean ± SE” value ([6]; 20 mg twice daily, Day 2, P .0005 vs day 1) was 53.1 ± 8.7 ng/mL, the “% Milk fat, Mean ± SE” value ([6]; 20 mg twice daily, Day 3, NS) was 3.21± 0.4% and the “% Milk protein, Mean ± SE” value ([6]; 20 mg twice daily, Day 3, NS) was 1.61± 0.1%. For the same molecule, the “Plasma PRL, Mean ± SE” value ([6]; 20 mg twice daily, Day 3, P .005 vs day 1) was 73.3 ± 12.4 ng/mL, the “% Milk fat, Mean ± SE” value ([6]; 20 mg twice daily, Day 4, NS) was 3.79±0.4% and the “% Milk protein, Mean ± SE” value ([6]; 20 mg twice daily, Day 4, NS) was 1.62±0.1%. The “Plasma PRL, Mean ± SE” value ([6]; 20 mg twice daily, Day 4, NS vs day 1) was 44.1 ± 7.0 ng/mL, the “% Milk fat, Mean ± SE” value ([6]; 20 mg twice daily, Day 5, NS) was 3.02±0.2% and the “% Milk protein, Mean ± SE” value ([6]; 20 mg twice daily, Day 5, NS) was 1.60±0.1%. For the same molecule, the “Plasma PRL, Mean ± SE” value ([6]; 20 mg twice daily, Day 5, NS vs day 1) was 54.8 ± 13.9 ng/mL, the “mean percent fat composition of milk, greater than pretreatment” value ([6]; 20 mg twice daily, day two of treatment, difference not significant) was ~1% and the “percent of lactose concentration in milk” value ([6]; milk samples obtained from all studies) was “remained constant”. For the same molecule, the “return to full nursing” value ([6]; partially nursing women after TRH ingestion) was “all were able to return to full nursing”, the “breast engorgement and milk letdown” value ([6]; reported by each woman as a result of TRH ingestion) was “subjective and objective increases” and the “infant plasma growth hormone” value [7] was 32.2 ± 4.9 ng/mL. The infant plasma prolactin [7] was 200.3 ± 19.2 ng/mL.
